# Assay results reported in ChEMBL document CHEMBL1149060, “Structure of malhamensilipin A, an inhibitor of protein tyrosine kinase, from the cultured chrysophyte Poterioochromonas malhamensis” (J Nat Prod, 1994).
# Test: Inhibition of Rous sarcoma virus pp60v-src
smiles,measurement,value
CCCCCCCCC(Cl)C(Cl)C(O)C(Cl)C(Cl)C(Cl)CCCCCCCC/C(Cl)=C\OS(=O)(=O)O (stereo unspecified) [MALHAMENSILIPIN A],IC50,35 µM
